Data reported in patent US4764509A, “Pharmaceutical compositions containing di-gold phosphine” (SmithKline Beckman Corporation, priority 1987, dated 1988).
Where “and” joins values, the source holds several entries; their conditions need not be identical. Equal entries are not always repeated.

Assays:
[1] = system: P388 leukemia; experiment: in vivo ip P388 lymphocytic leukemia mouse model (increase in lifespan); design: species or system mouse (B6D2F1); settings: ip Days 1 through 5; figures separated by slashes are from separate experiments; ≥25 percent ILS considered active
Description: P388 lymphocytic leukemia is currently the most widely used animal tumor model for screening for antitumor agents and for detailed evaluation of active compounds. This tumor system is widely accepted as an antitumor agent screening tool because it is sensitive to virtually all of the clinically active antineoplastic agents; quantitative and reproducible; amenable for large-scale screening; and predictive for activity in other animal tumor models.
(§1) 10^6 P388 leukemia cells are inoculated ip in B6D2F1 mice. Twenty-four hours later, if the tumor inoculum proves to be free of bacterial contamination (as determined by 24 hours incubation in thioglycollate broth), animals are randomized into groups of 6 and housed in shoebox cages. The compound to be evaluated is dissolved in a minimal volume of either N,N-dimethylacetamide (DMA) or 95% ethanol (depending upon solubility). An equal volume of saline is added; if the drug comes out of solution an equal volume of polyethoxylated castor oil is added and then saline qs to a concentration such that the desired dose is delivered in 0.5 ml. The final concentration of DMA, ethanol and polyethoxylated castor oil is 10 percent. […] Animals are monitored daily for mortality and experiments are terminated after 45 days. […]

[2] = system: B16 melanoma; experiment: in vivo ip B16 melanoma assay (increase in lifespan); design: species or system mouse (B6D2F1); settings: ip daily for ten (10) days; ILS of ≥25% indicates activity
Procedure: (§2) In this system, groups of eight B6D2F1 mice are inoculated ip with 0.5 ml of a 10% (w:v) brei of B16 melanoma prepared from pooled sc tumors excised at 14-21 days from […] donor mice. Daily treatment is begun 24 hours after tumor implantation and is continued daily for ten (10) days. The route of drug administration is ip. The mice are monitored daily for survival for sixty (60) days. Antitumor activity is assessed by prolongation of median survival time. An ILS of ≥25% indicates activity in this tumor model.

[3] = maximally tolerated dose in mice, ip qD x 10 regimen (B16 experiment); type: in vivo, mouse (B6D2F1); settings: B6D2F1 mice, ip qD × 10 regimen
Procedure: as §2
^(b) maximally tolerated dose for B6D2F1 mice on a ip qD ×

[4] = maximally tolerated dose in mice, ip qDx5 regimen (P388 experiment); type: in vivo, mouse (B62DF female); settings: B62DF female mice
Procedure: as §1, with “percent. Dilutions for lower doses are made with saline so there is a decreasing proportion of organic solvents in the vehicle with decreasing dosage These vehicles provide soluble formulations (or suspensions). Formulations are prepared immediately prior to injection. The compound is administered ip on Days 1 through 5 (i.e. treatment is initiated 24 hrs after tumor inoculation). Each experiment includes three groups of 6 animals as untreated controls and animals treated with a positive control, cisplatin, at two dose levels.” for “percent.”

[5] = Struck et al. 1966; cited from earlier work

Compound: Dichlorobis[1,2-bis(diphenylphosphino)ethane]digold [Compound 1]
- ILS (max): maximum increase in lifespan, mice bearing ip P388 leukemia [1]: 81% and 91% and 55%
- ILS: maximum increase in lifespan, mice bearing ip B16 melanoma [2]: 35%
- MTD (maximally tolerated dose) [3]: 4 mg/kg
- MTD (maximally tolerated dose) [4]: 8 mg/kg

Compound: c1ccc(P(CCP(c2ccccc2)c2ccccc2)c2ccccc2)cc1 [1,2-bis(diphenylphosphino)ethane]
- cytotoxic activity (in words) [5]: cytotoxic activity

Compound: Dichlorobis[1,2-bis(diethylphosphino)ethane]digold [Compound 2]
- ILS (max): maximum increase in lifespan, mice bearing ip P388 leukemia [1]: 29%
- MTD (maximally tolerated dose) [4]: 16 mg/kg
